Laboratory results: US20260042764A1, “COMPOSITIONS AND METHODS FOR INHIBITION OF KRAS” (TheRas, Inc., priority 2022, published 2026)

Columns and labels:
[1] = target: T1, Avi-KRAS G12C (2-169) GTP/RAF1 RBD-3xFLAG (51-131) (Homo sapiens, UniProt P01116, G12C); assay: Raf1-KRAS G12C-GTP disruption HTRF assay (Biological Example 3); assay type: binding
T1 construct: Avi-KRAS G12C (2-169)
Summary of the method: (§1)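 An HTRF assay measured disruption of 50 nM Avi-KRAS (2-169)-GTP (WT, G12C, G12D or G12V) bound to RAF1 RBD-3xFLAG (51-131). Buffer was Tris pH 7.5 with 5 mM MgCl2 and 10% DMSO. Compounds (30–0.005 μM, 3-fold, 10 points) were incubated 1 h at room temperature, and activity is given as % of DMSO.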

GP2d cells (KRAS G12D) = assay: Cell-based pERK HTRF assay in GP2d cell (Biological Example 2); conditions: GP2d
Summary of the method: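 Phospho-ERK is measured by HTRF following a 60 min compound exposure at 0.25% DMSO, with a 9-point half-log curve topping at 1 μM or 100 nM.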

[2] = target: T2, Avi-KRAS G12D (2-169) GTP/RAF1 RBD-3xFLAG (51-131) (Homo sapiens, UniProt P01116, G12D); assay: Raf1-KRAS G12D-GTP disruption HTRF assay (Biological Example 3); assay type: binding
T2 construct: Avi-KRAS G12D (2-169)
Summary of the method: as §1

[3] = target: T3, Avi-KRAS G12V (2-169) GTP/RAF1 RBD-3xFLAG (51-131) (Homo sapiens, UniProt P01116, G12V); assay: Raf1-KRAS G12V-GTP disruption HTRF assay (Biological Example 3); assay type: binding
T3 construct: Avi-KRAS G12V (2-169)
Summary of the method: as §1

SW620 cells (KRAS G12V) = assay: Cell-based pERK HTRF assay in SW620 cell (Biological Example 4); conditions: Homo sapiens
Summary of the method: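 Read-out: HTRF pERK signal (excitation 320 nm, emission 615 nm) from lysates of SW620 cells after 4 h compound exposure. Dose range was 9 points, half-log steps from 1 μM, in 0.25% DMSO; antibody incubation ran 4–24 h at room temperature.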

[4] = target: T4, Avi-KRAS WT (2-169) GTP/RAF1 RBD-3xFLAG (51-131) (Homo sapiens, UniProt P01116); assay: Raf1-KRAS WT-GTP disruption HTRF assay (Biological Example 3); assay type: binding
T4 construct: Avi-KRAS WT (2-169)
Summary of the method: as §1

[5] = SW-620, SW620 (KRAS G12V) cells

T4 sequence (P01116 2-169 isoform P01116-2): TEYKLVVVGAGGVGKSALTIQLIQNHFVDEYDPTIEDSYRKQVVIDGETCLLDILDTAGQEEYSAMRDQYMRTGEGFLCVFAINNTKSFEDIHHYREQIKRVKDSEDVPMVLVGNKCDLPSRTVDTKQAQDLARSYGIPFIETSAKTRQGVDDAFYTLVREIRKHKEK
T2 sequence (P01116 2-169 isoform P01116-2 G12D): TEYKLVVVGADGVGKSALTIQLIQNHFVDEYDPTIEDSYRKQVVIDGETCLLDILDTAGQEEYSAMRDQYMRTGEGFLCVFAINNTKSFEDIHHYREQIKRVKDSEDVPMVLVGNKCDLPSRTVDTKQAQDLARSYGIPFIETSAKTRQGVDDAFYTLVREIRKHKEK
T3 sequence (P01116 2-169 isoform P01116-2 G12V): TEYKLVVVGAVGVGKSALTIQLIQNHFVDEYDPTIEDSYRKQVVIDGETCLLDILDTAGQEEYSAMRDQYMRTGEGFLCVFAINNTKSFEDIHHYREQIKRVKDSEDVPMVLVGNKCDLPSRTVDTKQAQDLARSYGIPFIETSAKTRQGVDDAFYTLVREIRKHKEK
T1 sequence (P01116 2-169 isoform P01116-2 G12C): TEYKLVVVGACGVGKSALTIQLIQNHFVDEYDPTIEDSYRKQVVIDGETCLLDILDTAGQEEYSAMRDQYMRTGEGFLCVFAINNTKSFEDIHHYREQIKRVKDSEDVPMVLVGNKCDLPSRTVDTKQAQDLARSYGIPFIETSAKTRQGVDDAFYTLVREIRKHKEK

SMILES	IC50 ([1]; KRAS G12C, GTP-loaded) [nM]	IC50 (GP2d cells (KRAS G12D); GP2d (KRAS G12D) cells) [nM]	IC50 ([2]; KRAS G12D, GTP-loaded) [nM]	IC50 ([3]; KRAS G12V, GTP-loaded) [nM]	IC50 (SW620 cells (KRAS G12V); [5]) [nM]	IC50 ([4]; KRAS WT, GTP-loaded) [nM]	IC50 ([1]; KRAS G12C-GTP / RAF1 RBD HTRF) [nM]	IC50 (GP2d cells (KRAS G12D); GP2d cells (KRAS G12D)) [nM]	IC50 ([2]; KRAS G12D-GTP / RAF1 RBD HTRF) [nM]	IC50 ([3]; KRAS G12V-GTP / RAF1 RBD HTRF) [nM]	IC50 (SW620 cells (KRAS G12V); SW-620, SW620 cells (KRAS G12V)) [nM]	IC50 ([4]; KRAS WT-GTP / RAF1 RBD HTRF) [nM]
CCN(c1nc(OC[C@@]23CCCN2C[C@H](F)C3)nc2c(F)c(-c3ccc(F)c4sc(N)c(C#N)c34)c(C(F)(F)F)cc12)[C@@H]1CO[C@H]2OCC[C@H]21 (atropisomer, axis not shown) [Compound 966]	100 to 1000	< 100	100 to 1000	100 to 1000	< 100	100 to 1000						
CCN(c1nc(OC[C@@]23CCCN2C[C@H](F)C3)nc2c(F)c(-c3ccc(F)c4sc(N)c(C#N)c34)c(C(F)(F)F)cc12)[C@H]1CCCN(C)C1=O (atropisomer, axis not shown) [Compound 967]	1000 to 10000	< 100	100 to 1000	1000 to 10000	< 100	1000 to 10000						
CCN(c1nc(OC[C@@]23CCCN2C[C@H](F)C3)nc2c(F)c(-c3ccc(F)c4sc(N)c(C#N)c34)c(C(F)(F)F)cc12)[C@@H]1CCCN(C)C1=O (atropisomer, axis not shown) [Compound 968]	1000 to 10000	< 100	100 to 1000	1000 to 10000	< 100	100 to 1000						
CCN(c1nc(OC[C@@]23CCCN2C[C@H](F)C3)nc2c(F)c(-c3ccc(F)c4sc(N)c(C#N)c34)c(C(F)(F)F)cc12)[C@H]1C[C@H]2CN(C3CCC3)C(=O)N2[C@@H]1C (atropisomer, axis not shown) [Compound 970]	100 to 1000	< 100	100 to 1000	100 to 1000	< 100	100 to 1000						
CN(c1nc(OC[C@@]23CCCN2C[C@H](F)C3)nc2c(F)c(-c3ccc(F)c4sc(N)c(C#N)c34)c(C(F)(F)F)cc12)[C@H]1CCCc2ccncc21 (atropisomer, axis not shown) [Compound 971]	> 10000	< 100	> 10000	> 10000	< 100	> 10000						
CN(c1nc(OC[C@@]23CCCN2C[C@H](F)C3)nc2c(F)c(-c3ccc(F)c4sc(N)c(C#N)c34)c(C(F)(F)F)cc12)[C@@H]1CCCc2ccncc21 (atropisomer, axis not shown) [Compound 972]							100 to 1000	< 100	100 to 1000	100 to 1000	< 100	100 to 1000
CCN(c1nc(OC[C@@]23CCCN2C[C@H](F)C3)nc2c(F)c(-c3ccc(F)c4sc(N)c(C#N)c34)c(C(F)(F)F)cc12)[C@H]1C[C@H]2CCCC(=O)N2C1 (atropisomer, axis not shown; (aR)) [Compound 662, 2-amino-4-((S)-4-(ethyl((2S,8aR)-5-oxooctahydroindolizin-2-yl)amino)-8-fluoro-2-(((2R,7aS)-2-fluorotetrahydro-1H-pyrrolizin-7a(5H)-yl)methoxy)-6-(trifluoromethyl)quinazolin-7-yl)-7-fluorobenzo[b]thiophene-3-carbonitrile]	≤ 100	< 100	≤ 100	≤ 100	< 100	100 to 1000						
CCN(c1nc(OC[C@@]23CCCN2C[C@H](F)C3)nc2c(F)c(-c3ccc(F)c4sc(N)c(C#N)c34)c(C(F)(F)F)cc12)[C@H]1C[C@H](C)N(C(=O)[C@@H]2C[C@H]2F)C1 (atropisomer, axis not shown; (aS)) [Compound 893, 2-amino-4-((S)-4-(ethyl((3S,5S)-1-((1S,2R)-2-fluorocyclopropane-1-carbonyl)-5-methylpyrrolidin-3-yl)amino)-8-fluoro-2-(((2R,7aS)-2-fluorotetrahydro-1H-pyrrolizin-7a (5H)-yl)methoxy)-6-(trifluoromethyl)quinazolin-7-yl)-7-fluorobenzo[b]thiophene-3-carbonitrile]	100 to 1000	< 100	100 to 1000	≤ 100	< 100	100 to 1000						
C[C@H](c1cccnc1)N(C)c1nc(OC[C@@]23CCCN2C[C@H](F)C3)nc2c(F)c(-c3ccc(F)c4sc(N)c(C#N)c34)c(C(F)(F)F)cc12 (atropisomer, axis not shown; (aS)) [Compound 904, 2-amino-7-fluoro-4-((S)-8-fluoro-2-(((2R,7aS)-2-fluorotetrahydro-1H-pyrrolizin-7a(5H)-yl)methoxy)-4-(methyl((R)-1-(pyridin-3-yl)ethyl)amino)-6-(trifluoromethyl)quinazolin-7-yl)benzo[b]thiophene-3-carbonitrile]	1000 to 10000	< 100	1000 to 10000	1000 to 10000	< 100	1000 to 10000						
CCN(c1nc(OC[C@@]23CCCN2C[C@H](F)C3)nc2c(F)c(-c3ccc(F)c4sc(N)c(C#N)c34)c(C(F)(F)F)cc12)[C@H]1CCN(C(=O)c2cncs2)C1 (atropisomer, axis not shown; (aS)) [Compound 906, 2-amino-4-((S)-4-(ethyl((S)-1-(thiazole-5-carbonyl)pyrrolidin-3-yl)amino)-8-fluoro-2-(((2R,7aS)-2-fluorotetrahydro-1H-pyrrolizin-7a(5H)-yl)methoxy)-6-(trifluoromethyl)quinazolin-7-yl)-7-fluorobenzo[b]thiophene-3-carbonitrile]	100 to 1000	< 100	100 to 1000	100 to 1000	< 100	100 to 1000						
CCN(c1nc(OC[C@@]23CCCN2C[C@H](F)C3)nc2c(F)c(-c3ccc(F)c4sc(N)c(C#N)c34)c(C(F)(F)F)cc12)[C@H]1CCN(C(=O)N2CC3C(C2)C3(C)C)C1 (stereo partly drawn) [Compound 817]	100 to 1000	< 100	100 to 1000	100 to 1000	< 100	1000 to 10000						
CCN(c1nc(OC[C@@]23CCCN2C[C@H](F)C3)nc2c(F)c(-c3ccc(F)c4sc(N)c(C#N)c34)c(C(F)(F)F)cc12)[C@H]1CCN(C(=O)c2ccon2)[C@@H]1C [Compound 838]	100 to 1000	< 100	100 to 1000	100 to 1000	< 100	100 to 1000						
CCN(c1nc(OC[C@@]23CCCN2C[C@H](F)C3)nc2c(F)c(-c3ccc(F)c4sc(N)c(C#N)c34)c(C(F)(F)F)cc12)[C@H]1CCN(C(=O)C2CC(OC)C2)C1 (stereo partly drawn) [Compound 844]	100 to 1000	< 100	100 to 1000	100 to 1000	< 100	100 to 1000						
CCN(c1nc(OC[C@@]23CCCN2C[C@H](F)C3)nc2c(F)c(-c3ccc(F)c4sc(N)c(C#N)c34)c(C(F)(F)F)cc12)[C@H]1C[C@H](COC)N(C(=O)C2CC2(F)F)C1 (stereo partly drawn) [Compound 861]	100 to 1000	< 100	100 to 1000	100 to 1000	< 100	100 to 1000						
CCN(c1nc(OC[C@@]23CCCN2C[C@H](F)C3)nc2c(F)c(-c3ccc(F)c4sc(N)c(C#N)c34)c(C(F)(F)F)cc12)[C@H]1C[C@H](COC)N(C(=O)C2C[C@@H]2F)C1 (stereo partly drawn) [Compound 870]	100 to 1000	< 100	100 to 1000	100 to 1000	< 100	100 to 1000						
